Ki data for 19 molecules are collected here from patent US5387671A, “Hexa- and heptapeptide anaphylatoxin-receptor ligands” (Abbott Laboratories, priority 1990, dated 1995).

Numbered stars: 1 amine (or outer) side, 2 acyl side, 3 side chain; on linkers, the order of the positions; unused ones are H or OH. Square brackets hold non-standard residues; d marks the D form. Peptide text beside a SMILES is read from it. * marks the point of attachment. X1 = N=C(N)NCCC[C@@H](NC[C@H](Cc1ccccc1)N*)C(=O)O; X4 = NCCCC[C@@H](CN1CCC[C@H]1C(=O)[*:2])N[*:1]; X2 = CN(CCCCC(Cc1ccccc1)C(=O)[*:2])[*:1]; X3 = CN(C(CCCc1ccccc1)C(=O)[*:2])[*:1]; d(β3hF) = N[C@@H](CC(=O)O)Cc1ccccc1; NMeCha = CN[C@@H](CC1CCCCC1)C(=O)O; NMeF = CN[C@@H](Cc1ccccc1)C(=O)O; NMeGABA = CN(CCCC(=O)[*:2])[*:1]; Cha = N[C@@H](CC1CCCCC1)C(=O)O; dCha = N[C@H](CC1CCCCC1)C(=O)O; NMeA = CN[C@@H](C)C(=O)O; Nle = CCCC[C@H](N)C(=O)O; Aze = O=C(O)[C@@H]1CCN1; Ahx = NCCCCCC(=O)O; βAla = NCCC(=O)O; Sar = CNCC(=O)O

The assay addresses T1, C5a Receptor (Homo sapiens, UniProt P21730).
T1 construct: 2.5-25 ug/mL of purified PMNL membrane fragments; endogenous in cells; host or cells: PMNL (polymorphonuclear leukocytes), purified membrane fragments
T1 sequence (P21730 1-350): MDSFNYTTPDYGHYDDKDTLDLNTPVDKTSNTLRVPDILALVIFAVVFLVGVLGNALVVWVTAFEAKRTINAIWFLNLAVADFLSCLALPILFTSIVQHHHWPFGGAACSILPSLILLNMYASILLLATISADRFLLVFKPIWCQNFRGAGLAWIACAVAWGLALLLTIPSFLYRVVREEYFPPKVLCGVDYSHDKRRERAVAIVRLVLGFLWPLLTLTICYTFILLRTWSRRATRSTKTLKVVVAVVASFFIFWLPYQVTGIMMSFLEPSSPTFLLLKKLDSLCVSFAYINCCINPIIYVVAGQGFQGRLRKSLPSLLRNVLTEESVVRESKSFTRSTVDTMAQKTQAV
The assay can be described thus: Anaphylatoxin Receptor Binding Ki Determination (inhibition of 125I-C5a binding to PMNL membrane fragments). The following applies: 0.03-1 nM 125I-C5a; 2.5-25 ug/mL purified PMNL membrane fragments; filtration; read-out: In vitro C5a Receptor Binding Potency Ki. The source says:
Free and membrane-bound ligand were separated by filtration.
In the case of `CN[C@@H](Cc1ccccc1)C(=O)N[C@@H](CCCCN)C(=O)N(C)[C@@H](C)C(=O)N[C@H](CC1CCCCC1)C(=O)N[C@@H](CC1CCCCC1)C(=O)N[C@H](CCCNC(=N)N)C(=O)O` [Example 34, (N-Methyl)Phenylalanyl-Lysyl-(N-Methyl)Alanyl-{(2R)-2-Amino-3-cyclohexylpropanoyl}-{(2S)-2-Amino-3-cyclohexylpropanoyl}-DArginyl-OH] (H-[NMeF]K[NMeA][dCha][Cha][dR]-OH), the Ki is 0.034 µM.
As for `C[C@H](NC(=O)[C@H](CCCCN)NC(=O)[C@@H](N)Cc1ccccc1)C(=O)N[C@@H](CC1CCCCC1)C(=O)NCCCCCC(=O)N[C@@H](CCCNC(=N)N)C(=O)O` [Example 10, H-Phenylalanyl-Lysyl-Alanyl-{(2S)-2-Amino-3-cyclohexylpropanoyl}-{6-Aminohexanoyl}-Arginyl-OH] (H-FKA[Cha][Ahx]R-OH), the inhibition constant Ki was 85 µM.
The same measure for `CC(C)C[C@H](NC(=O)[C@H](CC1CCCCC1)NC(=O)CCNC(=O)[C@H](CCCCN)NC(=O)[C@@H](N)Cc1ccccc1)C(=O)N[C@H](C)C(=O)N[C@@H](CCCNC(=N)N)C(=O)O` [Example 7, H-Phenylalanyl-Lysyl-{3-Aminopropanoyl}-{(2S)-2-Amino-3-cyclohexylpropanoyl}-Leucyl-DAlanyl-Arginyl-OH] (H-FK[βAla][Cha]L[dA]R-OH): 2.2 µM.
The same measure for `CCCC[C@H](NC(=O)[C@H](Cc1ccccc1)NC)C(=O)N(C)[C@@H](C)C(=O)N[C@H](CC1CCCCC1)C(=O)N[C@@H](CC1CCCCC1)C(=O)N[C@H](CCCNC(=N)N)C(=O)O` [Example 62, (N-Methyl)Phenylalanyl-Norleucyl-(N-Methyl)Alanyl-{(2R)-2-Amino-3-cyclohexylpropanoyl}-{(2S)-2-Amino-3-cyclohexylpropanoyl}-DArginyl-OH] (H-[NMeF][Nle][NMeA][dCha][Cha][dR]-OH): 0.26 µM.
The same measure for `C[C@H](NC(=O)[C@H](CCCCN)NC(=O)[C@@H](N)Cc1ccccc1)C(=O)N[C@@H](CC1CCCCC1)C(=O)NCCC(=O)N[C@H](CCCNC(=N)N)C(=O)O` [Example 19, H-Phenylalanyl-Lysyl-Alanyl-{(2S)-2-Amino-3-cyclohexylpropanoyl}-{3-Aminopropanoyl}-DArginyl-OH] (H-FKA[Cha][βAla][dR]-OH): 130 µM; for `CC(C)C[C@H](NC(=O)[C@H](CCC(N)=O)NC(=O)CCCCCNC(=O)[C@@H](N)Cc1c[nH]cn1)C(=O)NCC(=O)N[C@@H](CCCNC(=N)N)C(=O)O` [Example 4, H-Histidyl-{6-Aminohexanoyl}-Glutaminyl-Leucyl-Glycyl-Arginyl-OH] (H-H[Ahx]QLGR-OH): 180 µM.
On to `CC(C)C[C@H](NC(=O)[C@H](CC1CCCCC1)NC(=O)[C@H](C)N(C)C(=O)[C@H](CCCCN)NC(=O)[C@@H](N)Cc1ccccc1)C(=O)N[C@H](C)C(=O)N[C@@H](CCCNC(=N)N)C(=O)O` [Example 17, H-Phenylalanyl-Lysyl-(N-Methyl)Alanyl-{(2S)-2-Amino-3-cyclohexylpropanoyl}-Leucyl-DAlanyl-Arginyl-OH] (H-FK[NMeA][Cha]L[dA]R-OH), for which the Ki stood at 2.5 µM.
The same measure for `CN[C@@H](Cc1ccccc1)C(=O)N[C@@H](CCCCN)C(=O)N(C)CCCC(=O)N[C@@H](Cc1ccccc1)C(=O)N[C@H](CCCNC(=N)N)C(=O)O` [Example 121, (N-Methyl)Phenylalanyl-Lysyl-{4-(Methylamino)butanoyl}-Phenylalanyl-DArginyl-OH] (H-[NMeF]K[NMeGABA]F[dR]-OH): 21 µM; for `C[C@H](NC(=O)[C@H](CCCCN)NC(=O)[C@@H](N)Cc1ccccc1)C(=O)N[C@H](CC1CCCCC1)C(=O)N(C)[C@@H](CC1CCCCC1)C(=O)N[C@H](CCCNC(=N)N)C(=O)O` [Example 40, H-Phenylalanyl-Lysyl-Alanyl-{(2R)-2-Amino-3-cyclohexylpropanoyl}-{(N-Methyl)(2S)-2-Amino-3cyclohexylpropanoyl}-DArginyl-OH] (H-FKA[dCha][NMeCha][dR]-OH): 0.59 µM; for `CN[C@@H](Cc1ccccc1)C(=O)N[C@@H](CCCCN)C(=O)N1CCC[C@H]1C(=O)N[C@H](CC1CCCCC1)C(=O)N[C@@H](Cc1ccccc1)C(=O)N[C@@H](CC(=O)O)Cc1ccccc1` [Example 170, (N-Methyl)Phenylalanyl-Lysyl-Prolyl-{(2R)-2-Amino-3-cyclohexylpropanoyl}-Phenylalanyl-{(3R)-Amino-4-phenylbutanoic acid}] (H-[NMeF]KP[dCha]F[d(β3hF)]-OH): 2.6 µM.
Turning to `CN[C@@H](Cc1ccccc1)C(=O)N[C@@H](CCCCN)CN1CCC[C@H]1C(=O)N[C@H](CC1CCCCC1)C(=O)N[C@@H](CC1CCCCC1)C(=O)N[C@H](CCCNC(=N)N)C(=O)O` [Example 79, (N-Methyl)Phenylalanyl-Lysyl-.PSI.{CH2 NH}-Prolyl-{(2R)-2-Amino-3-cyclohexylpropanoyl}-{(2S)-2-Amino-3-cyclohexylpropanoyl}-DArginyl-OH] (H-[NMeF][X4][dCha][Cha][dR]-OH), the Ki was 14.5 µM.
`CN[C@@H](Cc1ccccc1)C(=O)N[C@@H](CCCCN)C(=O)N(C)CCCCC(Cc1ccccc1)C(=O)N[C@@H](Cc1ccccc1)C(=O)N[C@H](CCCNC(=N)N)C(=O)O` (stereo partly shown) [Example 134] (H-[NMeF]K[X2]F[dR]-OH): the inhibition constant (Ki) was found to be 6.8 µM.
The result for `N=C(N)NCCC[C@@H](NC(=O)[C@H](CC1CCCCC1)NC(=O)[C@@H](CC1CCCCC1)NC(=O)[C@@H]1CCN1C(=O)[C@H](CCCCN)NC(=O)[C@@H](N)Cc1ccccc1)C(=O)O` [Example 43, H-Phenylalanyl-Lysyl-{(2S)-Azetidine-2-carbonyl}-{(2R)-2-Amino-3-cyclohexylpropanoyl}-{(2S)-2-Amino-3-cyclohexylpropanoyl}-DArginyl-OH] (H-FK[Aze][dCha][Cha][dR]-OH) reads 0.023 µM; that for `CN[C@@H](Cc1ccccc1)C(=O)N[C@@H](CCCCN)C(=O)N1CCC[C@H]1C(=O)N[C@H](CC1CCCCC1)C(=O)N[C@@H](Cc1ccccc1)C(C)N[C@@H](CCCNC(=N)N)C(=O)O` (mixture of isomers) [Example 143, (N-Methyl)Phenylalanyl-Lysyl-Prolyl-{(2R)-2-Amino-3-cyclohexylpropanoyl}-Phenylalanyl-.PSI.{(R/S)CH(CH3)NH}-Arginyl-OH], 4.2 µM; that for `CN[C@@H](Cc1ccccc1)C(=O)N[C@@H](CCCCN)C(=O)N1CCC[C@H]1C(=O)N[C@H](CC1CCCCC1)C(=O)N[C@H](CN[C@H](CCCNC(=N)N)C(=O)O)Cc1ccccc1` [Example 2, (N-Methyl)Phenylalanyl-Lysyl-Prolyl-{(2R)-2-Amino-3-cyclohexylpropanoyl}-Phenylalanyl-.PSI.(CH2 NH)-DArginyl-OH] (H-[NMeF]KP[dCha]-X1), 1 µM.
On to `CN[C@@H](Cc1ccccc1)C(=O)N[C@@H](CCCCN)C(=O)N(C)C(CCCc1ccccc1)C(=O)N[C@H](CC1CCCCC1)C(=O)N[C@@H](Cc1ccccc1)C(=O)N[C@H](CCCNC(=N)N)C(=O)O` (stereo partly drawn) [Example 156, (N-Methyl)Phenylalanyl-Lysyl-{(2R/S)-2-Methylamino-5-phenylpentanoyl}-{(2R)-2-Amino-3-cyclohexylpropanoyl}-Phenylalanyl-DArginyl-OH] (H-[NMeF]K[X3][dCha]F[dR]-OH), for which the Ki stood at 0.66 µM.
For the molecule `CN[C@@H](Cc1ccccc1)C(=O)N[C@@H](CCCCN)C(=O)N(C)[C@@H](Cc1ccccc1)C(=O)N[C@H](CC1CCCCC1)C(=O)N[C@@H](CC1CCCCC1)C(=O)N[C@H](CCCNC(=N)N)C(=O)O` [Example 61, (N-Methyl)Phenylalanyl-Lysyl-(N-Methyl)Phenylalanyl-{(2R)-2-Amino-3-cyclohexylpropanoyl}-{(2S)-2-Amino-3-cyclohexylpropanoyl}-DArginyl-OH] (H-[NMeF]K[NMeF][dCha][Cha][dR]-OH), the Ki is 0.22 µM.
The same measure for `CN(CC(=O)N[C@H](CC1CCCCC1)C(=O)N[C@@H](CC1CCCCC1)C(=O)N[C@H](CCCNC(=N)N)C(=O)O)C(=O)[C@H](CCCCN)NC(=O)[C@@H](N)Cc1ccccc1` [Example 56, H-Phenylalanyl-Lysyl-Sarcosyl-{(2R)-2-Amino-3-cyclohexylpropanoyl}-{(2S)-2-Amino-3-cyclohexylpropanoyl}-DArginyl-OH] (H-FK[Sar][dCha][Cha][dR]-OH): 0.014 µM; for `CN[C@@H](Cc1ccccc1)C(=O)N[C@@H](CCCCN)C(=O)N1CCC[C@H]1CN[C@H](CC1CCCCC1)C(=O)N[C@@H](Cc1ccccc1)C(=O)N[C@H](CCCNC(=N)N)C(=O)O` [Example 103]: 0.36 µM.
